Patent publication US6159983A, “Method and composition for treatment of inflammatory bowel disease” (University of Florida, priority 1998, dated 2000)

Columns and labels:
[1] = Iron binding in a test tube
[2] = Iron chelation when given to rats orally or subcutaneously; format: in vivo; settings: orally or subcutaneously (s.c.)
[3] = tested on: acetic acid-induced colitis; assay: Acetic acid-induced colitis in the rat (pre-treatment, intrarectal); format: in vivo, rat (Sprague-Dawley); settings: for effectiveness against acetic acid-induced colitis: i.r., 650 μmol/kg, before acetic acid, rat
Description: A typical model of IBD in acetic acid-induced colitis in the rat has been described by Krawisz et al in Amer. J. Proc. Gastro. Col. Rec. Surg., Vol. 31, pages 11-18 (1980); and by Sharon et al in Gastroenterology, Vol. 88, pages 55-63 (1985) and Vol. 86, pages 453-460 (1984). Acetic acid-induced colitis is characterized by the movement of inflammatory cells into the colon, with the number of such cells in the mucosa being measured by the activity of myeloperoxidase, a marker enzyme for these cells. Positive desirable activity is indicated by a reduction in the high levels of myeloperoxidase caused by acetic acid.
Typically, Sprague-Dawley rats from Charles River Laboratories, Portage, Michigan (either sex, weight approximately 250 g) are dosed with test compounds and controls. Thereafter, the rats are given an intracolonic enema of acetic acid which produces a severe inflammatory response in the colon of a healthy rat characterized by rectal bleeding, diarrhea, epithelial erosions and destructions of crypts and gland cells. Twenty-four hours later, the test and control animals are sacrificed and the distal ten centimeters of the colons are removed and opened longitudinally. The tissue lesions contained within the removed, opened section of the colons are scored.
After the systematic evaluation of the impact of various fasting times, use of vehicles, the time interval between pre-treatment and administration of the acetic acid and altering the concentration of acetic acid, the final protocol for the experiments is to fast the rats for 30 hours in hanging wire cages, anesthetize the animals with sodium pentobarbital, administer the test drug 1 cc intrarectally (i.r.) either as a suspension or a solution in water, and to give the acetic acid (7.5% in water) 1 cc i.r. 30 minutes later. The rats are sacrificed 24 hours later and the colons are removed and assessed for damage.

[4] = tested on: acetic acid-induced colitis; assay: Reversal studies: compound given 30 minutes after acetic acid; format: in vivo; settings: given 30 minutes after 2.5% acetic acid; rat
[5] = Preliminary acute toxicity studies in mice; format: in vivo
[6] = patients treated long-term with 6MP or AZA for IBD; cited from earlier work
Crohn's disease = settings: multiple controlled trials and a recent meta-analysis; cited from earlier work
ulcerative colitis = settings: cited from earlier work

Cc1ccc(O)c(C2=NC(C(=O)O)CC2)c1 (centres unmarked) [2H-pyrrolecarboxylic acid, 3,4-dihydro-5-(2-hydroxy-5-methylphenyl)-2H-pyrrole-2-carboxylic acid]
iron binding [1]: binds iron remarkably well
activity as an iron chelator [2]: inactive
dose response: prevention of severe lesions ([3]; 162.5 μmol/kg (41.5 mg/kg) at 1 cc i.r., rats): severe lesions being prevented in a majority of rats
head-to-head comparison with 5-ASA or its commercially available formulation (Rowasa) ([3]; 650 μmol/kg vs. 1742 mmol/kg (so in the source), FIGS. 7 and 8): far superior even at a much lower dose
damage to the colons compared with control rats ([3]; FIGS. 2-8): considerably less damage
damage in the colons of the rats, expanded experiments ([3]; expanded experiments): very little damage
damage in the colons of the test animals ([3]; i.r. at 650 μmol/kg (165 mg/kg N-methylhydroxamate or 166 mg/kg 2H-pyrrolecarboxylic acid), 30 minutes before acetic acid, FIGS. 2-8): very little damage
lesions compared with the control group [4]: less severe and less active
state of the lesions (resolution, histology) [4]: apparently resolving and with some lamina proprial fibrosis and considerable hyper-plasia of submucosal lymphoid tissue
deaths ([5]; i.p., at doses up to 1 g/kg): no deaths
acute toxicity ([5]; preliminary): virtually non-toxic

Sc1ncnc2nc[nH]c12 [6MP, 6-Mercaptopurine]
dose-related leukopenia, patients affected [6]: 2-5%
efficacy in Crohn's disease (Crohn's disease): support the efficacy

Cn1cnc([N+](=O)[O-])c1Sc1ncnc2nc[nH]c12 [AZA, azathioprine]
use in ulcerative colitis (ulcerative colitis; several controlled trials): support the use
dose-related leukopenia, patients affected [6]: 2-5%
efficacy in Crohn's disease (Crohn's disease): support the efficacy

CC(=O)N(O)CCCCCNC(=O)CCC(=O)N(O)CCCCCNC(=O)CCC(=O)N(O)CCCCCN [DFO, reference compound]
effectiveness against acetic acid-induced colitis [3]: ineffective

C[C@]1(C(=O)O)CSC(c2ncccc2O)=N1 [DFT, reference compound]
effectiveness against acetic acid-induced colitis [3]: ineffective

Nc1ccc(O)c(C(=O)O)c1 [mesalamine, 5-aminosalicylic acid]
effectiveness for the treatment of acute UC (ulcerative colitis): effective to some degree in some patients

O=C(O)c1cc(/N=N/c2ccc(S(=O)(=O)Nc3ccccn3)cc2)ccc1O [sulfasalazine]
effectiveness for the treatment of acute UC (ulcerative colitis): effective to some degree in some patients
